The values below come from ChEMBL document CHEMBL5579824, “Novel Hsp90-Targeting PROTACs: Enhanced synergy with cisplatin in combination therapy of cervical cancer” (Eur J Med Chem, 2024).

The subject of experiment [1] is SiHa. Description: Synergistic antiproliferative activity against human SiHa cells assessed as combination index at 0.05 uM incubated for 72 hrs in presence of 0.01 uM cisplatin by CCK-8 assay. Type of experiment: functional.
In experiment [2] the test system is SiHa. Description: Synergistic antitumor activity against human SiHa cells xenografted in BALB/c nude mouse assessed as tumor growth inhibition at 2 mg/kg, ip co-treated with cisplatin separately for every two days. In kind it is functional, organism-based.
Experiment [3] relates to SiHa. Description: Synergistic antiproliferative activity against human SiHa cells assessed as combination index at 0.1 uM incubated for 72 hrs in presence of 0.03 uM cisplatin by CCK-8 assay. In kind it is functional.
Experiment [4] deals with SiHa. Description: Induction of apoptosis in human SiHa cells assessed as early apoptotic cells at 1 uM incubated after 48 hrs by annexin V-FITC/PI staining based flow cytometry (reference value: 2.05 %). In kind it is functional.
In experiment [5] the test system is SiHa. Description: Antiproliferative activity against human SiHa cells assessed as reduction in cell viability incubated for 72 hrs by CCK-8 assay. Type of experiment: functional, cell-based.
Experiment [6] deals with Serine/threonine-protein kinase mTOR (Homo sapiens) (UniProt P42345). Description: Inhibition of mTOR phosphorylation in human SiHa cells incubated for 10 hrs by Western blot analysis. Type of experiment: cell-based. The settings on record: dose 0.01-1 µM.
The test system of experiment [7] is SiHa. Description: Induction of apoptosis in human SiHa cells assessed as early apoptotic cells at 2.5 uM incubated after 48 hrs by annexin V-FITC/PI staining based flow cytometry (reference value: 2.05 %). Type of experiment: functional.
Experiment [8] has as its system SiHa. Description: Synergistic antiproliferative activity against human SiHa cells assessed as combination index at 10 uM incubated for 72 hrs in presence of 1 uM cisplatin by CCK-8 assay. Type of experiment: functional.
In experiment [9] the test system is SiHa. Description: Synergistic antiproliferative activity against human SiHa cells assessed as combination index at 5 uM incubated for 72 hrs in presence of 3.16 uM cisplatin by CCK-8 assay. In kind it is functional.
Experiment [10] concerns the target Protein cereblon/Heat shock protein HSP 90-alpha/Heat shock protein HSP 90-beta (Homo sapiens) (UniProt P07900+P08238+Q96SW2). Description: Protac activity at CRBN/Hsp90 in human SiHa cells assessed as decrease in AKT protein expression level incubated for 10 hrs by Western blot analysis. Type of experiment: cell-based. The settings on record: dose 0.01-1 µM.
Experiment [11] concerns SiHa. Description: Induction of cell cycle arrest in human SiHa cells assessed as accumulation of cells at S pahse at 1 uM incubated after 48 hrs by PI staining based flow cytometry (reference value: 8.51 %). In kind it is functional.

Active and inactive are the calls of the source. The rule behind the calls is not given here.

With `CC1(C)CC(=O)c2c(C(F)(F)F)nn(-c3ccc(C(N)=O)c(N[C@H]4CC[C@H](OC(=O)CNC(=O)CCCCCCCNc5cccc6c5CN(C5CCC(=O)NC5=O)C6=O)CC4)c3)c2C1` (stereo partly specified), the CI is reported as 1.83 in the experiment with SiHa [1], 0.49 in the experiment on SiHa [3], 1.78 in the experiment with SiHa [8] and 0.65 in the experiment on SiHa [9]. In addition, the TGI result in the experiment on SiHa [2] was “Active”. The Activity with SiHa [4] is 16.5%; with SiHa [7], 21.35%; in [10], “Dose-Dependent Effect”; with SiHa [11] it was 13.56%. Besides, the IC50 in the experiment on SiHa [5] was 50 nM. Besides, the inhibition entry in experiment [6] is “Active”.
